Assay results taken from paper PMC9934367, “Functional impact of subunit composition and compensation on Drosophila melanogaster nicotinic receptors–targets of neonicotinoids” (PLOS Genetics, 2023).
Like-named read-outs stand apart in the source and are kept apart here.

How the values were obtained:
D. melanogaster larvae = assay: Pupariation rate assay; format: in vivo
Procedure: All flies were raised at 25°C under 12 h/12 h light/dark cycle. The animals were reared on standard fly food containing 5.5 g agar, 100 g glucose, 40 g dry yeast, 90 g cornflour, 3 mL propionic acid, and 3.5 mL 10% butyl p-hydroxybenzoate (Nacalai Tesque, Japan, #06327–15) in 70% ethanol per liter. The control strain was w^1118, and transgenic flies are as follows: UAS-nAChRα1 RNAi (#28688) was obtained from the Bloomington Drosophila Stock Center (BDSC); UAS-nAChRα2 RNAi (UAS-Dα2 RNAi, #10760), UAS-nAChRα3 RNAi (UAS-Dα3 RNAi, #101806); UAS-dicer2 (#60009) were obtained from the Vienna Drosophila Resource Center (VDRC); and UAS-mCD8::GFP (#108068) was obtained from Kyoto Stock Center. elav-Gal4 (3A3) was obtained from Michael B. O’Connor. nAChRα3-knock-in 2A-Gal4 (Dα3-knock-in T2A-Gal4) was generated by the CRISPR/Cas9 system as described in detail below.
Eggs were laid on grape juice plates with yeast paste at 25°C for 6 h. […] After a week of incubation at 25°C, pupal numbers were scored in each vial.

[1] = biological target: Dα2/Dα3/Dα4/Dβ1/Dβ2 nAChR; conditions: mean ± standard error (n = 5); for Imax: normalised to maximum ACh response
Procedure: (§1) cDNAs of the nAChR subunits and co-factors were cloned into pcDNA3.1 (+) vector (Thermo Fisher Scientific). The accession numbers of the nAChR subunits and cofactors are as follows: Dα1 (NP_524481), Dα2 (NP_524482), Dα3 (NP_525079), Dα4 (CAB77445), Dβ1 (NP_523927), Dβ2 (NP_524483), Dβ3 (NP_525098), DmRIC-3 (CAP16647), DmUNC-50 (NP_649813), and DmTMX3 (NP_648847). cRNAs were prepared using the mMESSAGE mMACHINE T7 ULTRA Transcription Kit (Thermo Fisher Scientific, #AM1345) according to the manual with the cDNA template which was cut with appropriate restriction enzymes at the 3’ end of the cDNA.
(§2) We minimised the use of X. laevis according to the UK Animals (Scientific Procedures) Act, 1986. […] Oocytes were defolliculated after collagenase treatment in Ca^2+-free standard oocyte saline (Ca^2+-free SOS). cRNAs of the nAChR subunits and co-factors mixed at a concentration of 0.1 mg/mL was injected into oocytes at a volume of 50 nL. Then the oocytes were incubated in the incubation medium (SOS supplemented with sodium pyruvate (Nacalai Tesque, #13058–12), penicillin-streptomycin (MilliporeSigma, #P4333), gentamycin (Nacalai Tesque, #16672–04), and 4% horse serum (Thermo Fisher Scientific, #26050–070) for 3−4 days prior to electrophysiology.
(§3) Each defolliculated X. laevis oocyte was secured in a Perspex recording chamber and perfused with the standard oocyte saline (SOS) containing 0.5 μM atropine (SOSA) at a flow rate of 7−10 mL/min [48]. Two glass electrodes filled with 2 M KCl were impaled into each oocyte and the membrane potential was clamped at -100 mV. […] The peak amplitude of the response was measured and analysed by pCLAMP (Molecular Devices, USA).
(§4) Y=Imax/1+10^(logEC50‐X)nH
(§5) Where Y is the normalised response, X is log[ligand (M)], EC50 is the half maximal concentration (M), Imax is the maximum normalised response and nH is the Hill coefficient.

[2] = biological target: Dα1/Dα2/Dα4/Dβ1/Dβ2 nAChR; conditions: mean ± standard error (n = 5); for Imax: normalised to maximum ACh response
Procedure: as §1, §2, §3, §4, §5

[3] = biological target: Dα1/Dα3/Dα4/Dβ1/Dβ2 nAChR; conditions: mean ± standard error (n = 5); for Imax: normalised to maximum ACh response
Procedure: as §1, §2, §3, §4, §5

[4] = RNAi of Dα1 (pan-neuronal knockdown) vs control
[5] = RNAi of Dα2 (pan-neuronal knockdown) vs control

CN/C(=N\[N+](=O)[O-])NCc1cnc(Cl)s1 [Clothianidin, clothianidin]
toxicity in larvae, effect of RNAi (D. melanogaster larvae; [4]): reduced toxicity | toxicity in larvae, effect of RNAi (D. melanogaster larvae; [5]): reduced toxicity | pEC50 [1]: 7.11 ± 0.12 | Imax [1]: 0.912 ± 0.041 | pEC50 [2]: 6.72 ± 0.09 | Imax [2]: 1.001 ± 0.031 | Imax ([2]; listed as clothianidin): 1.001 | pEC50 [3]: 6.94 ± 0.06 | Imax [3]: 0.425 ± 0.008 | Imax ([3]; listed as clothianidin): 0.425

O=[N+]([O-])NC1=NCCN1Cc1ccc(Cl)nc1 [Imidacloprid, imidacloprid]
toxicity in larvae, effect of RNAi (D. melanogaster larvae; [4]): reduced toxicity | toxicity in larvae, effect of RNAi (D. melanogaster larvae; [5]): reduced toxicity | pEC50 [1]: 7.40 ± 0.20 | Imax [1]: 0.027 ± 0.002 | Imax ([1]; listed as imidacloprid): 0.027 | pEC50 [2]: 6.48 ± 0.28 | Imax [2]: 0.172 ± 0.020 | pEC50 [3]: 7.30 ± 0.17 | Imax [3]: 0.101 ± 0.008

N#C/N=C1\SCCN1Cc1ccc(Cl)nc1 [Thiacloprid, thiacloprid]
toxicity in larvae, effect of RNAi (D. melanogaster larvae; [4]): reduced toxicity | toxicity in larvae, effect of RNAi (D. melanogaster larvae; [5]): reduced toxicity | pEC50 [1]: 7.99 ± 0.20 | Imax [1]: 0.018 ± 0.002 | Imax ([1]; listed as thiacloprid): 0.018 | pEC50 [2]: 7.01 ± 0.19 | Imax [2]: 0.066 ± 0.007 | pEC50 [3]: 7.96 ± 0.10 | Imax [3]: 0.026 ± 0.001
